Laboratory results taken from patent publication US20170015649A1, “N-Thio-anthranilamid compounds and their use as pesticides” (BASF SE, priority 2005, published 2017).
Like-named read-outs stand apart in the source and are kept apart here.

Columns and labels:
[1] = system: Southern Armyworm (Spodoptera eridania), 2nd Instar Larvae; test: whole plant or invertebrate; assay type: in vivo; details: in Phaseolus lunatus, foliar, 120 h
Procedure: The active compounds were formulated for testing the activity against insects and arachnids as a 10.000 ppm solution in a mixture of 35% acetone and water, which was diluted with water, if needed.
A Sieva lima bean leaf was dipped in the test solution and allowed to dry. The leaf was then placed in a petri dish containing a filter paper on the bottom and ten 2nd instar caterpillars. At 5 days, observations are made of mortality and reduced feeding.

[2] = system: Diamond Back Moth (Plutella xylostella); test: Activity against diamond back moth, cabbage leaf disk dip; assay type: in vivo; details: foliar
Procedure: The active compounds were formulated in 50:50 acetone:water and 0.1% (vol/vol) Alkamuls EL 620 surfactant. A 6 cm leaf disk of cabbage leaves was dipped in the test solution for 3 seconds and allowed to air dry in a Petri plate lined with moist filter paper. The leaf disk was inoculated with 10 third instar larvae and kept at 25-27° C. and 50-60% humidity for 3 days. Mortality was assessed after 72 h of treatment.

[3] = system: Yellowfever Mosquito (Aedes aegyptii) Larvae; test: Activity against mosquito larvae via water treatment; assay type: in vivo; details: read-out: mortality of yellowfever mosquito
Procedure: 11. Activity Against Yellowfever Mosquito (Aedes aegyptii), House Mosquito (Culex quinquefasciatus) and Malaria Mosquito (Anopheles albimanus) Larvae Via Water Treatment
Well plates were used as test arenas. The active ingredient was dissolved in acetone and diluted with water to obtain the concentrations needed. The final solutions containing appr. 1% acetone were placed into each well. Approximately 10 mosquito larvae (4th-instars) in 1 ml water were added to each well. Larvae were fed one drop of liver powder each day. The dishes were covered and maintained at 22° C. Mortality was recorded daily and dead larvae and live or dead pupae were removed daily. At the end of the test remaining live larvae were recorded and percent mortality was calculated.

[4] = system: Vetch Aphid (Megoura viciae); test: Activity against vetch aphid, bean leaf disks; assay type: in vivo; details: foliar, 144 h
Procedure: Bean leaf disks were placed into microtiterplates filled with 0.8% agar-agar and 2.5 ppm OPUS™. The leaf disks were sprayed with 2.5 μl of the test solution and 5 to 8 adult aphids were placed into the microtiterplates which were then closed and kept at 22-24° C. and 35-45% under fluorescent light for 6 days. Mortality was assessed on the basis of vital, reproduced aphids. Tests were replicated 2 times.

[5] = system: Tobacco Budworm (Heliothis virescens); test: whole plant or invertebrate; details: 144 h
[6] = system: Silverleaf Whitefly (Bemisia argentifolii); test: Activity against silverleaf whitefly, cotton cotyledon dip; assay type: in vivo; details: 72 h, cotyledons dipped, adults, 3 days after treatment
Procedure: (§1) The active compounds were formulated in 50:50 acetone:water and 100 ppm Kinetic™ surfactant.
Selected cotton plants were grown to the cotyledon state (one plant per pot). The cotyledons were dipped into the test solution to provide complete coverage of the foliage and placed in a well-vented area to dry. Each pot with treated seedling was placed in a plastic cup and 10 to 12 whitefly adults (approximately 3-5 day old) were introduced. The insects were collected using an aspirator and an 0.6 cm, non-toxic Tygon™ tubing (R-3603) connected to a barrier pipette tip. The tip, containing the collected insects, was then gently inserted into the soil containing the treated plant, allowing insects to crawl out of the tip to reach the foliage for feeding. The cups were covered with a reusable screened lid (150 micron mesh polyester screen PeCap from Tetko Inc). Test plants were maintained in the holding room at about 25° C. and 20-40% relative humidity for 3 days avoiding direct exposure to the fluorescent light (24 hour photoperiod) to prevent trapping of heat inside the cup. Mortality was assessed 3 days after treatment of the plants.

[7] = system: Boll Weevil (Anthonomus grandis); test: Activity against boll weevil, eggs in microtiterplates; assay type: in vivo; details: eggs sprayed with 20 μl test solution, 3 to 5 days
Procedure: 10 to 15 eggs were placed into microtiterplates filled with 2% agar-agar in water and 300 ppm formaline. […] Mortality was assessed on the basis of the remaining unhatched eggs or larvae on the agar surface and/or quantity and depth of the digging channels caused by the hatched larvae. Tests were replicated 2 times.

[8] = system: Cotton Aphid (Aphis gossypii); test: Activity against cotton aphid, cotton cotyledon dip; assay type: in vivo; details: 120 h, cotyledons dipped, after 5 days
Description: as §1
Cotton plants at the cotyledon stage (one plant per pot) were infested by placing a heavily infested leaf from the main colony on top of each cotyledon. The aphids were allowed to transfer to the host plant overnight, and the leaf used to transfer the aphids was removed. The cotyledons were dipped in the test solution and allowed to dry. After 5 days, mortality counts were made.

[9] = system: Mediterranean Fruitfly (Ceratitis capitata); test: Activity against Mediterranean fruitfly, eggs in microtiterplates; assay type: in vivo; details: 144 h, eggs sprayed with 5 μl test solution, 6 days
Procedure: 50 to 80 eggs were placed into microtiterplates filled with 0.5% agar-agar and 14% diet in water. […] Mortality was assessed on the basis of the agility of the hatched larvae. Tests were replicated 2 times.

[10] = 2500 ppm, leaf disks sprayed with 2.5 μl, 6 days, compared to 0% mortality of untreated controls, read-out: mortality
[11] = 300 ppm, leaf dipped, at 5 days, read-out: mortality
[12] = 300 ppm, leaf disk dipped, third instar larvae, after 72 h, read-out: mortality

Row | SMILES | mortality at 2500 ppm [5] | mortality at 300 ppm [6] | mortality at 2500 ppm [4, 10] | mortality at 2500 ppm [7] | mortality at 300 ppm [8] | mortality at 300 ppm [1, 11] | mortality at 2500 ppm [9] | mortality at 300 ppm [2, 12] | other results
1 | CCN(CC)S(=O)(=O)NC(=O)c1cccc(C)c1NC(=O)c1cc(Br)nn1-c1ncccc1Cl |  |  |  |  |  |  |  |  | melting point: 191 °C
2 | Cc1cccc(C(=O)NS(=O)(=O)N(C)C)c1NC(=O)c1cc(C(F)(F)F)nn1-c1ncccc1Cl |  |  |  |  |  |  |  |  | melting point: 183 °C
3 | CCS(C)=NC(=O)c1cc(C#N)cc(C)c1NC(=O)c1cc(C(F)(F)F)nn1-c1ncccc1Cl (stereo not drawn) |  |  |  |  |  |  |  |  | melting point: 65 °C
4 | CCN(C)S(=O)(=O)NC(=O)c1cc(Cl)cc(C)c1NC(=O)c1cc(Br)nn1-c1ncccc1Cl [I.1-7] |  |  |  |  |  |  |  |  | mortality at 300 ppm [1]: > 75%; mortality at 300 ppm ([2]; 72 h): > 75%
5 | Cc1cc(Cl)cc(C(=O)NS(=O)(=O)N(C)C)c1NC(=O)c1cc(Br)nn1-c1ncccc1Cl [I.1-9] |  |  |  |  |  |  |  |  | mortality at 300 ppm [1]: > 75%; mortality at 300 ppm ([2]; 72 h): > 75%
6 | CCN(C)S(=O)(=O)NC(=O)c1cccc(C)c1NC(=O)c1cc(Br)nn1-c1ncccc1Cl [I.1-27] |  |  |  |  |  |  |  |  | mortality at 300 ppm [1]: > 75%; mortality at 300 ppm ([2]; 72 h): > 75%
7 | Cc1cccc(C(=O)NS(=O)(=O)N(C)C)c1NC(=O)c1cc(Br)nn1-c1ncccc1Cl [I.1-30] |  |  |  |  |  |  |  |  | mortality at 300 ppm [1]: > 75%
8 | CCN(CC)S(=O)(=O)NC(=O)c1cc(Cl)cc(C)c1NC(=O)c1cc(C(F)(F)F)nn1-c1ncccc1Cl [I.1-37] |  |  |  |  |  |  |  |  | mortality at 10 ppm [3]: > 70%
9 | CCN(C)S(=O)(=O)NC(=O)c1cc(Cl)cc(C)c1NC(=O)c1cc(C(F)(F)F)nn1-c1ncccc1Cl [I.1-45] |  |  |  |  |  |  |  |  | mortality at 300 ppm [1]: > 75%; mortality at 300 ppm ([2]; 72 h): > 75%
10 | Cc1cc(Cl)cc(C(=O)NS(=O)(=O)N(C)C)c1NC(=O)c1cc(C(F)(F)F)nn1-c1ncccc1Cl [I.1-47] |  |  |  |  |  |  |  |  | mortality at 300 ppm [1]: > 75%; mortality at 300 ppm ([2]; 72 h): > 75%
11 | CCN(CC)S(=O)(=O)NC(=O)c1cccc(C)c1NC(=O)c1cc(C(F)(F)F)nn1-c1ncccc1Cl [I.1-53] | > 75% |  |  |  |  |  |  |  | mortality at 2500 ppm [4]: > 75%; mortality at 300 ppm [1]: > 75%
12 | CCN(C)S(=O)(=O)NC(=O)c1cccc(C)c1NC(=O)c1cc(C(F)(F)F)nn1-c1ncccc1Cl [I.1-61] |  |  |  |  |  |  |  |  | mortality at 300 ppm [1]: > 75%; mortality at 300 ppm ([2]; 72 h): > 75%
13 | CCS(CC)=NC(=O)c1cc(Cl)cc(C)c1NC(=O)c1cc(Br)nn1-c1ncccc1Cl [I.3-3] | > 75% | > 90% | > 75% | > 75% | > 50% | > 75% |  |  | 
14 | Cc1cc(Cl)cc(C(=O)N=S(C)C)c1NC(=O)c1cc(C(F)(F)F)nn1-c1ncccc1Cl [I.3-8] | > 75% | > 90% | > 75% | > 75% | > 50% | > 75% | > 75% | > 75% | 
15 | Cc1cc(I)cc(C(=O)N=S(C)C)c1NC(=O)c1cc(Br)nn1-c1ncccc1Cl [I.3-22] | > 75% | > 90% | > 75% | > 75% | > 50% | > 75% | > 75% | > 75% | 
16 | Cc1cc(I)cc(C(=O)N=S(C)C)c1NC(=O)c1cc(C(F)(F)F)nn1-c1ncccc1Cl [I.3-23] | > 75% | > 90% | > 75% | > 75% | > 50% | > 75% | > 75% | > 75% | 
17 | Cc1cccc(C(=O)N=S(C)C)c1NC(=O)c1cc(C(F)(F)F)nn1-c1ncccc1Cl [I.3-24] | > 75% |  | > 75% | > 75% | > 50% | > 75% | > 75% | > 75% | 
18 | CCS(C)=NC(=O)c1cc(Cl)cc(C)c1NC(=O)c1cc(Br)nn1-c1ncccc1Cl (stereo not drawn) [I.3-25] | > 75% | > 90% | > 75% | > 75% | > 50% | > 75% | > 75% | > 75% | 
19 | CCS(C)=NC(=O)c1cccc(C)c1NC(=O)c1cc(Br)nn1-c1ncccc1Cl (stereo not drawn) [I.3-26] | > 75% | > 90% | > 75% | > 75% | > 50% | > 75% | > 75% | > 75% | 
20 | CCS(C)=NC(=O)c1cc(I)cc(C)c1NC(=O)c1cc(Br)nn1-c1ncccc1Cl (stereo not drawn) [I.3-27] | > 75% | > 90% | > 75% | > 75% | > 50% | > 75% | > 75% | > 75% | 
21 | CCS(C)=NC(=O)c1cc(Cl)cc(C)c1NC(=O)c1cc(C(F)(F)F)nn1-c1ncccc1Cl (stereo not drawn) [I.3-28] | > 75% | > 90% | > 75% | > 75% | > 50% | > 75% | > 75% | > 75% | 
22 | CCS(C)=NC(=O)c1cccc(C)c1NC(=O)c1cc(C(F)(F)F)nn1-c1ncccc1Cl (stereo not drawn) [I.3-29] | > 75% |  | > 75% | > 75% | > 50% | > 75% | > 75% | > 75% | 
23 | CCS(C)=NC(=O)c1cc(I)cc(C)c1NC(=O)c1cc(C(F)(F)F)nn1-c1ncccc1Cl (stereo not drawn) [I.3-30] | > 75% | > 90% | > 75% | > 75% | > 50% | > 75% | > 75% | > 75% | 
24 | Cc1cc(C#N)cc(C(=O)N=S(C)C)c1NC(=O)c1cc(C(F)(F)F)nn1-c1ncccc1Cl [I.3-55] | > 75% |  | > 75% | > 75% |  |  | > 75% | > 75% | 
25 | Cc1cc(C#N)cc(C(=O)N=S(C)C)c1NC(=O)c1cc(Br)nn1-c1ncccc1Cl [I.3-60] |  |  |  |  |  |  |  | > 75% | 
26 | CCS(C)=NC(=O)c1cc(C#N)cc(C)c1NC(=O)c1cc(Br)nn1-c1ncccc1Cl (stereo not drawn) [I.3-61] |  |  |  |  |  |  |  | > 75% | 
27 | Cc1cc(Cl)cc(C(=O)N=S2(=O)CCCCC2)c1CC(=O)c1cc(Br)nn1-c1ccccc1Cl [I.4-22, 2-{2-[5-Bromo-2-(2-chloro-phenyl)-2H-pyrazol-3-yl]-2-oxo-ethyl}-5-chloro-3-methyl-N-(1-oxo-hexahydro-1lambda*6*-thiopyran-1-ylidene)-benzamide] | > 75% |  | > 75% | > 75% |  | > 75% | > 75% | > 75% | 
